The values that follow come from article PMC9116648, “Synthesis and biological evaluation of thiazolidine-2-thione derivatives as novel xanthine oxidase inhibitors” (PLoS ONE, 2022).

In general, IC50 refers to the concentration that gives 50% inhibition. As a reminder, the melting point is the temperature of the solid-liquid transition. Usually Ki stands for the dissociation constant of the complex between target and ligand, obtained from inhibition or displacement.

Data set [1] has as its target T1, Xanthine oxidase (XO) (Homo sapiens, UniProt P47989). The data set is described as follows: In vitro XO inhibitory potency (enzyme catalysis reaction, OD 295 nm). In kind it is biochemical. The procedure:
XO inhibitory activity was measured by enzyme catalysis reaction in vitro, with modifications. The XO solution (100 U/L) and xanthine solution (0.5 mmol/L) were prepared in PBS (10 mmol/L, pH = 7.4) and stored at 4°C. The test compounds were diluted to different concentrations with PBS. The enzyme catalysis reaction was performed in 96-well plates.

Data set [2] concerns the target T1, Xanthine oxidase (XO). The conditions noted are these: literature statement; cited from earlier work.
The target of data set [3] is T1, Xanthine oxidase (XO). Put plainly: Enzyme inhibitory kinetics (Lineweaver-Burk plots). In kind it is biochemical. On the procedure:
The inhibitory mode of representative compound 6k was further investigated using enzyme inhibitory kinetic studies. XO solution (55 U/L) was mixed respectively with compound 6k (0, 5, 10, and 20 μmol/L) and incubated at 37°C for 5 min. Then, xanthine solution (0.25, 0.5, 1.0, and 2.0 mmol/L) were added to initiate the reaction at 37°C for 30 min. The reaction was carried out in a 96-well plate and the OD value were read using a microplate reader at 295 nm. The obtained data were analyzed using Microsoft Excel 2013 and transformed into Lineweaver-Burk plots using GraphPad Prism 7.0. In addition, the value of Ki and Kis could be calculated using GraphPad Prism 7.0.

Setting [4] is: S1 Table, mean of three determinations, unit inferred, read-out: IC50 mean.
Where [5] appears, read: S1 Table, single determination 1 of 3, unit inferred, read-out: IC50 (first replicate column).
Where [6] appears, read: S1 Table, single determination 2 of 3, unit inferred, read-out: IC50 (second replicate column).
The mark [7] stands for this setting: S1 Table, single determination 3 of 3, unit inferred, read-out: IC50 (third replicate column).
The mark [8] stands for this setting: mean±SD, tested in triplicate, xanthine substrate, 37°C, PBS pH 7.4, read-out: IC50.

“Also recorded” adds a separate entry of the source. Read-outs that look alike come from different tables or passages of the source.

T1 sequence (P47989 whole entry, species assumed): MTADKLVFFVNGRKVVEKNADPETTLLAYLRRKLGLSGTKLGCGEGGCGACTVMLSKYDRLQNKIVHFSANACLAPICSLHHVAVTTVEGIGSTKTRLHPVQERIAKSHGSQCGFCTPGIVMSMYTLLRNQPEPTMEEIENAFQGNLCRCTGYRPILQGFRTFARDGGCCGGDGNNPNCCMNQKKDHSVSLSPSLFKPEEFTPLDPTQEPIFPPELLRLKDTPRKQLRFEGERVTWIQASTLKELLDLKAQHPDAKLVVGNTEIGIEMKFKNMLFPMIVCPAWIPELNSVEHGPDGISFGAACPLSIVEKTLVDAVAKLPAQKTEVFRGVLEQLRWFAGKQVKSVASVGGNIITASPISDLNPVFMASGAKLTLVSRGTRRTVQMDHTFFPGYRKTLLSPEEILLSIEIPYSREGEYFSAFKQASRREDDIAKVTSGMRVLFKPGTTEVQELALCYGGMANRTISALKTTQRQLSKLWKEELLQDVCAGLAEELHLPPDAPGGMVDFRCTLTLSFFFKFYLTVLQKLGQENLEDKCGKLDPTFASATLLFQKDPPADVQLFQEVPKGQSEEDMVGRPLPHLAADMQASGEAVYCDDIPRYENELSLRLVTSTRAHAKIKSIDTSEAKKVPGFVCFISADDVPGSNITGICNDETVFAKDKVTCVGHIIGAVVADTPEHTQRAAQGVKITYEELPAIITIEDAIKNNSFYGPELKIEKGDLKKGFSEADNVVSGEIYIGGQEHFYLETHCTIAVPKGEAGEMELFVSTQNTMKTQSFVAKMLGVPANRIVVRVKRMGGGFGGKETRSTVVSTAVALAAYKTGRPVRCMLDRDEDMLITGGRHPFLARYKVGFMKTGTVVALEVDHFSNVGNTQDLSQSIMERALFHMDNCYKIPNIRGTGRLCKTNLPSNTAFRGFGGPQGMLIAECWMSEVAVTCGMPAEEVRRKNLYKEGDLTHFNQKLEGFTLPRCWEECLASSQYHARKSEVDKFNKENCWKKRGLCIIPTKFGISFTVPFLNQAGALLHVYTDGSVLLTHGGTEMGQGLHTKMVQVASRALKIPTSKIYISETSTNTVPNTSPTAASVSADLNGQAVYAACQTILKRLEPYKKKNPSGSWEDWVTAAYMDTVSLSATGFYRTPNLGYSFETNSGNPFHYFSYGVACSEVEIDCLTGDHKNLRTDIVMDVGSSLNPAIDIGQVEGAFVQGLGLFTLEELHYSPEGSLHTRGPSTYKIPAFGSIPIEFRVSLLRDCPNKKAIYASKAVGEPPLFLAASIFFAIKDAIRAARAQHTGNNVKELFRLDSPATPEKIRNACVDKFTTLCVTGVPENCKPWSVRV

`Cc1ccc(S(=O)(=O)NC(=O)N2CCSC2=S)cc1` [Compound 6j, N-((4-methylphenyl)sulfonyl)-2-thioxothiazolidine-3-carboxamide]: the melting point lay within 127 to 129 °C. Also, in data set [1] (setting [4]), the IC50 worked out at 9.76 µM. Moreover, the IC50 in data set [1] (setting [5]) worked out at 11.5 µM. For the same compound, the IC50 in data set [1] (setting [6]) was found to be 8.48 µM. In addition, in data set [1] (setting [7]), the IC50 came out at 9.27 µM. Besides, the IC50 in data set [1] (setting [8]) is 9.76 ± 1.29 µM.

Regarding `CCCCNC(=O)N1CCSC1=S` [Compound 6c, N-butyl-2-thioxothiazolidine-3-carboxamide], the IC50 in data set [1] (setting [4]) came out at 30.5 µM; in data set [1] (setting [5]), 30.1 µM; in data set [1] (setting [6]), 33.5 µM; in data set [1] (setting [7]), 28 µM; in data set [1] (setting [8]) it was 30.5 ± 2.25 µM.

`O=C(NC1CCCCC1)N1CCSC1=S` [Compound 6h, N-cyclohexyl-2-thioxothiazolidine-3-carboxamide] gave a melting point of 114 to 115 °C. For the same compound, the IC50 in data set [1] (setting [4]) came out at 9.87 µM. In data set [1] (setting [5]), the IC50 was 8.25 µM. For the same compound, the IC50 in data set [1] (setting [6]) is 11.1 µM. The half-inhibitory concentration (IC50) in data set [1] (setting [7]) was determined as 10.3 µM. For the same compound, in data set [1] (setting [8]), the IC50 worked out at 9.87 ± 1.19 µM.

As to `Oc1ncnc2[nH]ncc12` [Allopurinol], the “Mode of XO inhibition” value in data set [2] is on record as “competitive inhibition”.

`S=C1SCCN1Cc1ccccc1` [Compound 4d, 3-benzyl-thiazolidine-2-thione] displayed a melting point of 115 to 117 °C. In addition, the concentration for half-maximal inhibition (IC50) in data set [1] (setting [4]) amounted to 114 µM. In addition, the IC50 in data set [1] (setting [5]) was 122 µM. In data set [1] (setting [6]), the half-maximal inhibitory concentration (IC50) came to 109 µM. In addition, the IC50 in data set [1] (setting [7]) is 110 µM. The IC50 in data set [1] (setting [8]) is over 100 µM.

`O=C(NS(=O)(=O)c1ccccc1)N1CCSC1=S` [Compound 6i, N-(phenylsulfonyl)-2-thioxothiazolidine-3-carboxamide]: the melting point fell in the range of 121 to 123 °C. Also, the IC50 in data set [1] (setting [4]) was 5.19 µM. Also, the IC50 in data set [1] (setting [5]) came out at 5.19 µM. Moreover, the IC50 in data set [1] (setting [6]) was found to be 4.02 µM. Also, the IC50 in data set [1] (setting [7]) worked out at 6.35 µM. For the same compound, in data set [1] (setting [8]), the IC50 worked out at 5.19 ± 0.95 µM.

Turning to `CCNC(=O)N1CCSC1=S` [Compound 6a, N-ethyl-2-thioxothiazolidine-3-carboxamide], the IC50 stood at 22.9 µM in data set [1] (setting [4]); 19.9 µM in data set [1] (setting [5]); 23.5 µM in data set [1] (setting [6]); 25.3 µM in data set [1] (setting [7]); 22.9 ± 2.24 µM in data set [1] (setting [8]).

In the case of `O=C(Nc1ccccc1)N1CCSC1=S` [Compound 6e, N-phenyl-2-thioxothiazolidine-3-carboxamide], the melting point is 101 to 102 °C. Further, the IC50 in data set [1] (setting [4]) was 10.2 µM. In addition, the IC50 in data set [1] (setting [5]) was 10.6 µM. The IC50 in data set [1] (setting [6]) came to 8.38 µM. Moreover, the IC50 in data set [1] (setting [7]) stood at 11.7 µM. The IC50 in data set [1] (setting [8]) came out at 10.2 ± 1.37 µM.

`S=C1SCCN1c1ccccc1` [Compound 4c, 3-phenyl-thiazolidine-2-thione]: the IC50 in data set [1] (setting [4]) worked out at 51.6 µM; in data set [1] (setting [5]), 49.4 µM; in data set [1] (setting [6]) it was 52.2 µM; in data set [1] (setting [7]) it was 53.3 µM; in data set [1] (setting [8]), 51.6 ± 1.64 µM.

`CC(C)CNC(=O)N1CCSC1=S` [Compound 6d, N-isobutyl-2-thioxothiazolidine-3-carboxamide]: the IC50 in data set [1] (setting [4]) was found to be 19 µM; in data set [1] (setting [5]), 21 µM; in data set [1] (setting [6]), 17.7 µM; in data set [1] (setting [7]) it was 18.4 µM; in data set [1] (setting [8]), 19 ± 1.44 µM.

Compound `O=C(Nc1cccnc1)N1CCSC1=S` [Compound 6g, N-(pyridin-3-yl)-2-thioxothiazolidine-3-carboxamide] returned a melting point of 111 to 113 °C. Moreover, the IC50 in data set [1] (setting [4]) is 14.5 µM. Besides, in data set [1] (setting [5]), the IC50 worked out at 17.7 µM. For the same compound, the IC50 in data set [1] (setting [6]) is 15.1 µM. The IC50 in data set [1] (setting [7]) is 10.7 µM. In addition, the IC50 in data set [1] (setting [8]) was found to be 14.5 ± 2.9 µM.

Regarding `Cc1nc(-c2ccc(OCC(C)C)c(C#N)c2)sc1C(=O)O` [Febuxostat, reference compound], the IC50 came to 3.02 µM in data set [1] (IC50 (first replicate column), S1 Table, single determination 1 of 3, unit inferred); 2.91 µM in data set [1] (IC50 (second replicate column), S1 Table, single determination 2 of 3, unit inferred); 4.08 µM in data set [1] (IC50 (third replicate column), S1 Table, single determination 3 of 3, unit inferred); 3.34 ± 0.53 µM in data set [1] (IC50, mean±SD, tested in triplicate, xanthine substrate, 37°C, PBS pH 7.4); 3.34 µM in data set [1] (IC50 mean, S1 Table, mean of three determinations, unit inferred).

Take `O=C(NS(=O)(=O)c1ccc(F)cc1)N1CCSC1=S` [Compound 6k, N-((4-fluorophenyl)sulfonyl)-2-thioxothiazolidine-3-carboxamide]: the IC50 in data set [1] (setting [4]) was found to be 3.56 µM; in data set [1] (setting [5]) it was 3.19 µM; in data set [1] (setting [6]), 4.42 µM; in data set [1] (setting [7]), 3.06 µM; in data set [1] (setting [8]), 3.56 ± 0.61 µM. Further, the “XO inhibitory potency relative to allopurinol (fold more potent)” value in data set [1] (ratio of IC50 values vs allopurinol) is listed as “approximately 2.5 fold”. Moreover, the “Mode of XO inhibition” value in data set [3] (Lineweaver-Burk plots) is “mixed-type XO inhibition; also recorded: mixed competitive inhibition; also recorded: mixed-type XO inhibitor”. Moreover, the “Intercept of Lineweaver-Burk plot” value in data set [3] (compound 6k 5 µmol/L) stood at 1.487; in data set [3] (compound 6k 10 µmol/L) it was 2.126; in data set [3] (compound 6k 20 µmol/L) it was 2.357. In addition, the “Slope of Lineweaver-Burk plot” value in data set [3] (compound 6k 5 µmol/L) was determined as 3.559; in data set [3] (compound 6k 10 µmol/L), 4.587; in data set [3] (compound 6k 20 µmol/L), 6.098. Further, the affinity in data set [3] (from secondary plot of Lineweaver-Burk slopes, XO 55 U/L), expressed as Ki, was 7.08 µM.

As to `O=C(NCc1ccccc1)N1CCSC1=S` [Compound 6f, N-benzyl-2-thioxothiazolidine-3-carboxamide], the melting point lay within 107 to 109 °C. The IC50 in data set [1] (setting [4]) is 12.8 µM. In data set [1] (setting [5]), the IC50 came to 12.8 µM. Also, the IC50 in data set [1] (setting [6]) came out at 14.8 µM. For the same compound, in data set [1] (setting [7]), the IC50 was 10.8 µM. Also, the IC50 in data set [1] (setting [8]) is 12.8 ± 1.6 µM.

Turning to `SC1=NCCS1` [Compound 3, thiazolidine-2-thione], the IC50 in data set [1] (setting [4]) came to 72.2 µM; in data set [1] (setting [5]), 74.1 µM; in data set [1] (setting [6]), 72.3 µM; in data set [1] (setting [7]), 70.1 µM; in data set [1] (setting [8]), 72.2 ± 1.66 µM.

With `CCCNC(=O)N1CCSC1=S` [Compound 6b, N-propyl-2-thioxothiazolidine-3-carboxamide], the IC50 in data set [1] (setting [4]) is 27.8 µM; in data set [1] (setting [5]) it was 27.2 µM; in data set [1] (setting [6]), 27.6 µM; in data set [1] (setting [7]), 28.6 µM; in data set [1] (setting [8]) it was 27.8 ± 0.63 µM.

`CCCN1CCSC1=S` [Compound 4b, 3-propyl-thiazolidine-2-thione]: the IC50 turned out to be 58.2 µM in data set [1] (setting [4]); 50.5 µM in data set [1] (setting [5]); 57.2 µM in data set [1] (setting [6]); 66.8 µM in data set [1] (setting [7]); 58.2 ± 6.71 µM in data set [1] (setting [8]).

Regarding `CCN1CCSC1=S` [Compound 4a, 3-ethyl-thiazolidine-2-thione], the IC50 in data set [1] (setting [4]) is 43.5 µM; in data set [1] (setting [5]) it was 43.4 µM; in data set [1] (setting [6]), 40.9 µM; in data set [1] (setting [7]), 46.3 µM; in data set [1] (setting [8]), 43.5 ± 2.18 µM.
